Laboratory results reported in PubChem BioAssay (NCI).
Values joined by “and” are separate entries in the source; they are usually repeats but may differ in a detail not shown here. Identical values can stand only once.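 Test compounds were applied to cells in 96-well plates for 48 hours at 5 doses. GI50 marks 50% less growth. TGI marks complete inhibition of growth.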

Key:
Test in all cases: NCI tumour cell line growth inhibition, 48 h
RXF 393 renal = test system: RXF 393 renal
MDA-N = test system: MDA-N
MDA-MB-231 breast = test system: MDA-MB-231 breast
P388 leukemia = test system: P388 leukemia
SNB-78 CNS = test system: SNB-78 CNS
DU-145 prostate = test system: DU-145 prostate
MOLT-4 leukemia = test system: MOLT-4 leukemia
HCC-2998 colon = test system: HCC-2998 colon
MDA-MB-435 = test system: MDA-MB-435
786-0 renal = test system: 786-0 renal
M14 melanoma = test system: M14 melanoma
SF-295 CNS = test system: SF-295 CNS
PC-3 prostate = test system: PC-3 prostate
NCI/ADR-RES ovarian = test system: NCI/ADR-RES ovarian
BT-549 breast = test system: BT-549 breast
TK-10 renal = test system: TK-10 renal
ACHN renal = test system: ACHN renal
SNB-19 CNS = test system: SNB-19 CNS
COLO 205 colon = test system: COLO 205 colon
HCT-116 colon = test system: HCT-116 colon
U251 CNS = test system: U251 CNS
KM20L2 colon = test system: KM20L2 colon
DMS 273 small cell lung = test system: DMS 273 small cell lung
RXF-631 renal = test system: RXF-631 renal
LXFL 529 NSCLC = test system: LXFL 529 NSCLC
SW-620 colon = test system: SW-620 colon
SK-MEL-28 melanoma = test system: SK-MEL-28 melanoma
HT29 colon = test system: HT29 colon
IGROV1 ovarian = test system: IGROV1 ovarian
OVCAR-3 ovarian = test system: OVCAR-3 ovarian
SK-MEL-5 melanoma = test system: SK-MEL-5 melanoma
K-562 leukemia = test system: K-562 leukemia
OVCAR-8 ovarian = test system: OVCAR-8 ovarian
UACC-62 melanoma = test system: UACC-62 melanoma
MCF7 breast = test system: MCF7 breast
A549 NSCLC = test system: A549 NSCLC
DLD-1 colon = test system: DLD-1 colon
HOP-92 NSCLC = test system: HOP-92 NSCLC
OVCAR-5 ovarian = test system: OVCAR-5 ovarian
M19-MEL melanoma = test system: M19-MEL melanoma
CCRF-CEM leukemia = test system: CCRF-CEM leukemia
DMS 114 small cell lung = test system: DMS 114 small cell lung
NCI-H460 lung = test system: NCI-H460 lung
T-47D breast = test system: T-47D breast
SF-268 CNS = test system: SF-268 CNS
EKVX NSCLC = test system: EKVX NSCLC
SK-OV-3 ovarian = test system: SK-OV-3 ovarian
NCI-H23 lung = test system: NCI-H23 lung
SN12C renal = test system: SN12C renal
MALME-3M melanoma = test system: MALME-3M melanoma
CAKI-1 renal = test system: CAKI-1 renal
A498 renal = test system: A498 renal
NCI-H226 lung = test system: NCI-H226 lung
SNB-75 CNS = test system: SNB-75 CNS
HOP-62 NSCLC = test system: HOP-62 NSCLC
OVCAR-4 ovarian = test system: OVCAR-4 ovarian
NCI-H522 lung = test system: NCI-H522 lung
UO-31 renal = test system: UO-31 renal
HS 578T breast = test system: HS 578T breast
UACC-257 melanoma = test system: UACC-257 melanoma
LOX IMVI melanoma = test system: LOX IMVI melanoma
HL-60(TB) leukemia = test system: HL-60(TB) leukemia
XF 498 CNS = test system: XF 498 CNS
SR leukemia = test system: SR leukemia
SF-539 CNS = test system: SF-539 CNS
RPMI-8226 leukemia = test system: RPMI-8226 leukemia
HOP-18 NSCLC = test system: HOP-18 NSCLC
HCT-15 colon = test system: HCT-15 colon
KM12 colon = test system: KM12 colon
SK-MEL-2 melanoma = test system: SK-MEL-2 melanoma

For CC[C@@H](C)[C@@H]1NC(=O)C(NC(=O)C(CC(C)C)N(C)C(=O)C2CCCN2C(=O)C(C)O)C(C)OC(=O)C(Cc2ccc(OC)cc2)N(C)C(=O)C2CCCN2C(=O)C(CC(C)C)NC(=O)C(C)C(=O)C(C(C)C)OC(=O)C[C@H]1O (stereo partly specified), the TGI (RXF 393 renal) was 0.01 µM and 0.0647 µM, the GI50 (MDA-N) was 0.0021 µM and the TGI (MDA-MB-231 breast) was 0.0199 µM and 0.053 µM. The TGI (P388 leukemia) was 0.03 µM and < 0.0103 µM, the GI50 (SNB-78 CNS) was 1.65 pM and the TGI (DU-145 prostate) was 0.0504 µM. For the same molecule, the TGI (MOLT-4 leukemia) was 0.0547 µM and 0.0255 µM, the TGI (HCC-2998 colon) was 0.00511 µM and 0.0314 µM and the TGI (MDA-MB-435) was 0.00316 µM and 0.00845 µM. For the same molecule, the TGI (786-0 renal) was 0.00827 µM and 0.0533 µM, the TGI (M14 melanoma) was 0.00648 µM and 0.039 µM and the TGI (SF-295 CNS) was 0.0115 µM and 0.0194 µM and 0.029 µM. The GI50 (PC-3 prostate) was 0.00251 µM, the TGI (PC-3 prostate) was 0.0425 µM and 0.0487 µM and the TGI (NCI/ADR-RES ovarian) was 1.88 µM and 0.359 µM. For the same molecule, the TGI (BT-549 breast) was 0.0967 µM, the TGI (TK-10 renal) was 0.0495 µM and 0.0741 µM and the TGI (ACHN renal) was 0.0204 µM and 0.053 µM.
COc1ccc(OC)c(/C=C/[N+](=O)[O-])c1 was tested, and the TGI (SNB-19 CNS) was 15.2 µM and 9.89 µM, the TGI (COLO 205 colon) was 4.06 µM and 6.76 µM and the TGI (HCT-116 colon) was 12.7 µM and 6.06 µM. The GI50 (U251 CNS) was 2.27 µM, the TGI (U251 CNS) was 8.86 µM and 7.37 µM and the TGI (KM20L2 colon) was 9.34 µM. For the same molecule, the TGI (DMS 273 small cell lung) was 6.99 µM, the TGI (RXF-631 renal) was 10.3 µM and the GI50 (RXF 393 renal) was 1.8 µM. For the same molecule, the TGI (RXF 393 renal) was 3.59 µM and 3.54 µM, the TGI (LXFL 529 NSCLC) was 4.83 µM and the TGI (SW-620 colon) was 16.9 µM and 5.39 µM. For the same molecule, the TGI (MDA-N) was 25.3 µM, the TGI (SK-MEL-28 melanoma) was 4.96 µM and 9.45 µM and the TGI (MDA-MB-231 breast) was 5.32 µM. The TGI (HT29 colon) was 6.33 µM and 7.41 µM, the GI50 (IGROV1 ovarian) was 2 µM and 3.79 µM and the TGI (IGROV1 ovarian) was 6.97 µM and 8.79 µM. The TGI (OVCAR-3 ovarian) was 4.9 µM and 3.31 µM, the GI50 (SK-MEL-5 melanoma) was 2.06 µM and the TGI (SK-MEL-5 melanoma) was 4.29 µM and 6.58 µM. The GI50 (K-562 leukemia) was 2.08 µM, the TGI (K-562 leukemia) was 6.96 µM and 14.8 µM and the GI50 (OVCAR-8 ovarian) was 3.31 µM. The TGI (OVCAR-8 ovarian) was 17.3 µM and 15.2 µM, the GI50 (UACC-62 melanoma) was 1.98 µM and 4.37 µM and the TGI (UACC-62 melanoma) was 5.34 µM and 12.1 µM. The TGI (MCF7 breast) was 8.64 µM, the GI50 (A549 NSCLC) was 2.85 µM and the TGI (A549 NSCLC) was 15.4 µM and 13.6 µM. The TGI (DLD-1 colon) was 8.65 µM, the GI50 (HOP-92 NSCLC) was 2.04 µM and the TGI (HOP-92 NSCLC) was 7.23 µM and 10.4 µM. For the same molecule, the GI50 (OVCAR-5 ovarian) was 2.11 µM and 4.32 µM, the TGI (OVCAR-5 ovarian) was 4.45 µM and 9.01 µM and the TGI (SNB-78 CNS) was 58.8 µM. For the same molecule, the TGI (M19-MEL melanoma) was 5.96 µM, the GI50 (CCRF-CEM leukemia) was 1.18 µM and the TGI (CCRF-CEM leukemia) was 14.6 µM and 5.38 µM. The GI50 (DU-145 prostate) was 2.57 µM, the TGI (DU-145 prostate) was 8.37 µM and 10.5 µM and the TGI (DMS 114 small cell lung) was 11.9 µM. The GI50 (MOLT-4 leukemia) was 1.1 µM and 2.52 µM, the TGI (MOLT-4 leukemia) was 5.31 µM and 9.59 µM and the GI50 (NCI-H460 lung) was 2.91 µM. The TGI (NCI-H460 lung) was 9.32 µM and 13.9 µM, the TGI (T-47D breast) was 46.8 µM and the TGI (SF-268 CNS) was 10 µM and 12.3 µM. For the same molecule, the GI50 (EKVX NSCLC) was 2.42 µM and 6.47 µM, the TGI (EKVX NSCLC) was 6.18 µM and 16.7 µM and the TGI (SK-OV-3 ovarian) was 26.2 µM and 10.3 µM. The TGI (NCI-H23 lung) was 13.6 µM and 8.12 µM, the TGI (SN12C renal) was 7.19 µM and 7.69 µM and the GI50 (MALME-3M melanoma) was 2.19 µM and 5.66 µM. The TGI (MALME-3M melanoma) was 7.26 µM and 11 µM, the GI50 (HCC-2998 colon) was 4.24 µM and 4.38 µM and the TGI (HCC-2998 colon) was 10.4 µM and 7.54 µM. The TGI (CAKI-1 renal) was 7.74 µM and 7.64 µM, the GI50 (A498 renal) was 3.26 µM and the TGI (A498 renal) was 8.42 µM and 8.29 µM. For the same molecule, the TGI (MDA-MB-435) was 7.68 µM, the GI50 (NCI-H226 lung) was 1.93 µM and 4.06 µM and the TGI (NCI-H226 lung) was 4.41 µM and 10.2 µM. The GI50 (SNB-75 CNS) was 5.3 µM, the TGI (SNB-75 CNS) was 12.9 µM and 11.8 µM and the TGI (HOP-62 NSCLC) was 8.27 µM and 9.56 µM. The TGI (OVCAR-4 ovarian) was 8.89 µM and 8.72 µM, the TGI (NCI-H522 lung) was 2.96 µM and 4.78 µM and the TGI (UO-31 renal) was 3.39 µM and 5.62 µM. For the same molecule, the TGI (786-0 renal) was 4.09 µM and 3.21 µM, the TGI (HS 578T breast) was 14.6 µM and the GI50 (UACC-257 melanoma) was 3.19 µM. The TGI (UACC-257 melanoma) was 11.7 µM and 8.28 µM, the GI50 (LOX IMVI melanoma) was 1.09 µM and the TGI (LOX IMVI melanoma) was 12.6 µM and 3.78 µM. The GI50 (HL-60(TB) leukemia) was 1.66 µM and 0.651 µM, the TGI (HL-60(TB) leukemia) was 4.5 µM and 2.79 µM and the TGI (XF 498 CNS) was 7.02 µM. The TGI (M14 melanoma) was 4.44 µM and 6.86 µM, the GI50 (SF-295 CNS) was 3.09 µM and the TGI (SF-295 CNS) was 9.46 µM and 11.4 µM. For the same molecule, the GI50 (PC-3 prostate) was 2.53 µM and 12.4 µM, the TGI (PC-3 prostate) was 7.37 µM and 27.9 µM and the GI50 (SR leukemia) was 0.467 µM and 0.865 µM. The TGI (SR leukemia) was 1.85 µM and 3.92 µM, the TGI (NCI/ADR-RES ovarian) was 21 µM and the TGI (BT-549 breast) was 11.9 µM. The GI50 (TK-10 renal) was 1.86 µM and 5.04 µM, the TGI (TK-10 renal) was 4.58 µM and 10.5 µM and the TGI (SF-539 CNS) was 13.8 µM and 10.4 µM. The GI50 (RPMI-8226 leukemia) was 1.74 µM, the TGI (RPMI-8226 leukemia) was 4.42 µM and 4.74 µM and the TGI (HOP-18 NSCLC) was 3.85 µM. The TGI (HCT-15 colon) was 17.1 µM and 6.73 µM, the TGI (ACHN renal) was 4.49 µM and 3.28 µM and the GI50 (KM12 colon) was 2.6 µM and 13.3 µM. For the same molecule, the TGI (KM12 colon) was 7.27 µM and 27.4 µM and the TGI (SK-MEL-2 melanoma) was 5.48 µM and 9.88 µM.
